Data as given in patent US8680058B2, “Selectively targeted antimicrobial peptides and the use thereof” (priority 2006, dated 2014).
“Also recorded” adds a separate entry of the source. Like-named read-outs stand apart in the source and are kept apart here. No end group written: not given here.

Assays:
S. mutans = type: cell-based, Streptococcus mutans
Protocol: (§1) 1.3 Determination of antimicrobial activity. The general antimicrobial activity of peptides against planktonic bacteria was determined by a MIC assay in TH broth (all oral streptococci) (Qi et al., 2005).
(§2) S. mutans, S. gordonii Challis (DL1), and S. sanguinis NY101 strains were grown in Todd Hewitt (TH, Fisher) broth medium at 37° C. under anaerobic conditions (80% N2, 10% CO2, and 10% H2). S. mutans strains UA159 (Ajdic et al., 2002), ATCC 25175, and T8 (Rogers, 1975), are wild-type clinical isolates, while comD is a knockout mutant that was constructed previously from the wild-type UA140 background (Qi et al., 2005). Luciferase expressing S. mutans strain JM11 was constructed from UA140 as described (Merritt et al., 2005). Exponentially growing bacterial cells were diluted to ˜1×10^5 cfu/mL in TH and placed into 96-well plates (Fisher). Peptides were then serially diluted and added to the bacteria.

S. gordonii = type: cell-based, S. gordonii Challis (DL1)
Protocol: as §1, §2

S. sanguinis = type: cell-based, S. sanguinis NY101
Protocol: as §1, §2

P. aeruginosa = assay: microbe, parasite or virus in culture; type: cell-based, Pseudomonas aeruginosa
Protocol: 2.3 Antimicrobial Activities. The general antimicrobial activities of G10KHc, G10, and tobramycin against clinical isolates of P. aeruginosa were evaluated by minimum inhibitory concentration (MIC) assay as previously described (Eckert et al., 2006) and shown in Table 5. MICs are reported in μM, though for familiarity, 1 μM tobramycin=0.468 μg/mL. P. aeruginosa were grown to log phase and adjusted to ˜1×10^5 cfu/mL in Mueller-Hinton (MH) broth and added to 96-well plates. Two-fold serial dilutions of peptide were then added to bacteria and the plates incubated for 18-24 hours at 37° C. MIC was determined as the concentration of peptide present in the last clear well (no growth). […] In contrast to tobramycin, G10KHc was also effective against aminoglycoside and multiple-antibiotic resistant P. aeruginosa isolated from CF patients (AGR10, MR15). Additionally, as mucoid P. aeruginosa are often associated with reduced susceptibility to antimicrobial agents, we were encouraged to find that G10KHc was active against one such strain, PDO300.

S. mutans biofilms = assay: Single-species biofilm regrowth after peptide exposure, S. mutans; type: cell-based, Streptococcus mutans; conditions: 25 μM peptide, 1 min exposure
Protocol: (§3) 1.5 Examination of antimicrobial activity against single-species biofilms. To initiate biofilm formation, ˜1×10^7 bacteria per well (from overnight cultures) were seeded in TH medium (100 μL) to a 96-well flat-bottom plate. For all streptococci except S. mutans, the medium was supplemented with 0.5% (w/v) mannose and glucose. S. mutans UA159 biofilms were grown with 0.5% (w/v) sucrose. Plates were then centrifuged briefly to pellet the cells, and bacteria were incubated for 3-4 hours at 37° C. for biofilm formation. After incubation, the supernatant was carefully removed and biofilms were treated with 25 μM peptide in 1×PBS or 1×PBS alone for 1 min. The peptide solution was then removed and 100 μL TH was added to further dilute any remaining peptide. To minimize biofilm loss, cells were briefly centrifuged after TH addition, after which the supernatants were removed and fresh medium plus appropriate sugars were returned. Cells were then incubated anaerobically at 37° C. and biofilm growth was monitored over time by measuring absorbance at OD600 with a microplate spectrophotometer (Benchmark Plus, BioRad).

S. sanguinis biofilms = assay: Single-species biofilm regrowth after peptide exposure, S. sanguinis; type: cell-based; conditions: 25 μM peptide, 1 min exposure
Protocol: as §3

S. gordonii biofilms = assay: Single-species biofilm regrowth after peptide exposure, S. gordonii; type: cell-based; conditions: 25 μM peptide, 1 min exposure
Protocol: as §3

[1] = system: S. mutans JM11 mixed with S. mitis, S. sobrinus, S. gordonii, S. sanguinis; assay: Selectivity against multi-species biofilms of oral streptococci; type: cell-based
Protocol: Selectivity of STAMPs against multi-species biofilms of oral streptococci. To measure selectivity of STAMPs, mixed biofilms were seeded to 48-well plates. Streptococcus mitis, S. sobrinus, S. gordonii, and S. sanguinis were mixed with S. mutans strain JM11 (spectinomycin resistant) at a 1:1:1:1:10 ratio, total of 10^5 cells/well. Biofilms were grown overnight in TH medium with 1% sucrose, 1% dextrose, and 1% mannose, for 18-24 h. Mature biofilms were treated with PBS plus STAMP as described for the single-species biofilm assay, with the same controls. After treatment, biofilms were washed 2× in PBS and then physically disrupted with a sterile pipette tip in 100 μL PBS per well. Cell suspensions were then serially diluted 10-fold to 10^-6. Diluted suspensions were then plated on TH medium and TH supplemented with spectinomycin, 800 μg/mL. The total amount of biofilm killing (all streptococci) was determined by counting colonies from TH-only plates. Controls: 100% of untreated corresponds to the number of cfu/mL recorded from untreated biofilms, 0% survival was obtained from ethanol sterilized samples. S. mutans killing was determined from quantitating colonies on TH-spectinomycin plates, and combined total cfu/mL, was utilized to calculate the ratio of S. mutans:total population. 1:1 ratio indicates no selectivity.

S. mutans UA159 and comD = assay: Binding of fluorescently labeled peptides to S. mutans (fluorescence microscopy); parameters: species or system Streptococcus mutans; conditions: fluorescently labeled peptide
Text: To determine whether there was a region within the CSPC16 sequence that was responsible for S. mutans-specific binding, we synthesized a series of fluorescently labeled CSPC16 fragments, and analyzed their ability to bind to S. mutans. The following strategies were utilized in dissecting the CSPC16 sequence (Table 2): First, a series of fragments were constructed by generating deletions of 3 or 4 amino acids, from the N to C terminus, across the CSPC16 sequence (C16-1 to C16-5). Peptides lacking larger portions of the C or N termini of CSPC16 were also synthesized (C16-6 to C16-12). Additionally, peptides with Arg to […] (a positive to negative change in charge) (C16-4) or Phe to Gly substitutions (for a general decrease in hydrophobicity) (C16-3), as well as peptides representing a 4-residue Ala scan of the C16 sequence were constructed (C 16-15 to C16-18). […] These peptides include C16 (SEQ ID NO 1), C16-3 (SEQ ID NO 39), C16-4 (SEQ ID NO 40), C16-5 (SEQ ID NO 41), C16-6 (SEQ ID NO 42), C16-11 (SEQ ID NO 47), C16-12 (SEQ ID NO 5), C16-16 (SEQ ID NO 51), C16-17 (SEQ ID NO 52), and C16-18 (SEQ ID NO 53).
(§4) 1.2 Fluorescent labeling of peptides and fluorescence microscopy. Aliquots of CSPC16 (SEQ ID NO 2), CSP-fragment peptides (Table 2), and C16G2 (SEQ ID NO 4) were labeled with carboxyfluorescein (Sigma) as described previously (Eckert et al., 2006). After peptide cleavage but prior to the bacterial labeling assay, fluorescence intensity per μM peptide was checked fluorimetrically (λex=488 nm, λem=520 nm VersaFluor, BioRad) and found to be relatively similar (data not shown). To evaluate the level of peptide binding to bacteria, streptococci from an overnight culture (OD600 of 0.7-1.0) were washed with phosphate buffered saline (1×PBS), diluted 1:2 into 1×PBS, and exposed to peptide (16 μM) for 5 min at 25° C. After incubation with peptide, unbound agent was removed from the bacteria by three cycles of centrifugation (5 min, 16,000×g) and resuspension in 1×PBS. Labeling of oral streptococci was evaluated using brightfield and fluorescence microscopy (Nikon E400) at a 40× magnification. The digital images utilized for the semi-quantitative binding assessment were acquired with the factory-supplied software (SPOT, Diagnostics).

other oral streptococci = assay: Binding of fluorescently labeled peptides to other oral streptococci; conditions: fluorescently labeled peptide
Text: as §4

FKKFWKWFRRF-OH [Peptide S6L3-33, FKKFWKWFRRF]
MIC (S. mutans; S. mutans UA159): 7.0 ± 3.0 µM
MIC (S. mutans; S. mutans comD): 6.5 ± 2.5 µM
MIC (S. gordonii): 20 ± 5.0 µM
MIC (S. sanguinis): 40 ± 7.5 µM

KKHRKHRKHRKH (synthetic targeting peptide Cat-1 domain, KH domain)
antimicrobial activity of targeting domain alone (P. aeruginosa; data not shown): does not have any antimicrobial activity

KKHRKHRKHRKHGGSGGSKNLRRIIRKGIHIIKKYG [Peptide G10KHc]
MIC range (P. aeruginosa): 0.5 to 29 µM
mean MIC (P. aeruginosa): 6.22 µM

KLFKFLRKHLL-OH [BD2.21, KLFKFLRKHLL]
MIC (S. mutans; planktonic S. mutans): 5.5 µM

KNLRIIRKGIHIIKKY-NH2 [Peptide G2, KNLRIIRKGIHIIKKY*]
MIC (S. mutans; S. mutans 25175): 14.8 ± 2.0 µM
MIC (S. mutans; S. mutans T8): 14.2 ± 1.5 µM
MIC (S. mutans; S. mutans UA159): 12.1 ± 4.5 µM
MIC (S. mutans; S. mutans comD): 15.3 ± 4.2 µM
MIC (S. gordonii): 41.3 ± 14.0 µM
biofilm re-growth after treatment (OD600) (S. mutans biofilms): unaffected
MIC (S. sanguinis): 33.6 ± 7.5 µM
biofilm re-growth after treatment (OD600) (S. sanguinis biofilms): grew similarly to untreated biofilms
biofilm re-growth after treatment (OD600) (S. gordonii biofilms): grew similarly to untreated biofilms

NIFEYFLEGGGKLFKFLRKHLL (synthetic selectively/specifically targeted antimicrobial peptide (STAMP) chimeric polypeptide 1903-BD2.21)
impact on total cfu/mL population / other oral streptococci (in words) ([1]; multi-species biofilm, 20 min): some impact on other oral streptococci
reduction of total population ([1]; multi-species biofilm, 20 min): about 30%

SGSLSTFFRLFNRSFTQALGK-OH [CSP, reference compound]
MIC (S. mutans; S. mutans 25175): >60 µM
MIC (S. mutans; S. mutans T8): >60 µM
MIC (S. mutans; S. mutans UA159): 50.8 ± 9.3 µM
MIC (S. mutans; S. mutans comD): >60 µM
MIC (S. gordonii; S. gordonii): >60 µM
biofilm re-growth after treatment (OD600) (S. mutans biofilms): unaffected
MIC (S. sanguinis; S. sanguinis): >60 µM
biofilm re-growth after treatment (OD600) (S. sanguinis biofilms): grew similarly to untreated biofilms
biofilm re-growth after treatment (OD600) (S. gordonii biofilms): grew similarly to untreated biofilms

TFFRAAAASFTQALGK (synthetic competence stimulating peptide (CSP) fragment peptide C16-16 with 4-residue Ala scan)
binding to S. mutans (in words) (S. mutans UA159 and comD): binding but at a weaker intensity than CSPC16

TFFRL (synthetic competence stimulating peptide (CSP) fragment peptide C16-11 with C-terminal deletion)
binding to S. mutans (in words) (S. mutans UA159 and comD): binding but at a weaker intensity than CSPC16

TFFRLFNR-OH [CSPM8, TFFRLFNR]
MIC (S. mutans; S. mutans 25175): >60 µM
MIC (S. mutans; S. mutans T8): >60 µM
MIC (S. mutans; S. mutans UA159): >60 µM
MIC (S. mutans; S. mutans comD): >60 µM
MIC (S. gordonii): >60 µM
binding to other oral streptococci (other oral streptococci): little or no binding
MIC (S. sanguinis): >60 µM

TFFRLFNRAAAAALGK (synthetic competence stimulating peptide (CSP) fragment peptide C16-17 with 4-residue Ala scan)
binding to S. mutans (in words) (S. mutans UA159 and comD): binding but at a weaker intensity than CSPC16

TFFRLFNRGGGKNLRIIRKGIHIIKKY-NH2 [Peptide M8G2]
MIC (S. mutans; S. mutans 25175): 3.5 ± 0.5 µM
MIC (S. mutans; S. mutans UA159): 3.25 ± 1.9 µM
MIC (S. mutans; S. mutans comD): 4.0 ± 2.0 µM
MIC (S. gordonii): 20 ± 5.0 µM
biofilm re-growth after treatment (OD600) (S. mutans biofilms): capable of inhibiting the recovery of S. mutans biofilms
MIC (S. sanguinis): 15 ± 2.5 µM
biofilm re-growth after treatment (OD600) (S. sanguinis biofilms): not those of S. sanguinis

TFFRLFNRSFTQALGK-OH [CSPC16, TFFRLFNRSFTQALGK]
MIC (S. mutans; S. mutans 25175): >60 µM
MIC (S. mutans; S. mutans T8): >60 µM
MIC (S. mutans; S. mutans UA159): >60 µM
MIC (S. mutans; S. mutans comD): >60 µM
MIC (S. gordonii): >60 µM
binding to S. mutans (in words) (S. mutans UA159 and comD): detected as bound; also recorded: could specifically bind to S. mutans
binding to other oral streptococci (other oral streptococci): not to other oral streptococci
biofilm re-growth after treatment (OD600) (S. mutans biofilms): unaffected
MIC (S. sanguinis): >60 µM
biofilm re-growth after treatment (OD600) (S. sanguinis biofilms): grew similarly to untreated biofilms
biofilm re-growth after treatment (OD600) (S. gordonii biofilms): grew similarly to untreated biofilms

TFFRLFNRSFTQALGKGGGKLFKFLRKHLL (synthetic selectively/specifically targeted antimicrobial peptide (STAMP) chimeric polypeptide C16-BD2.21)
ratio of surviving S. mutans to total Streptococci ([1]; 1:1 ratio indicates no selectivity): 0.075
impact on total cfu/mL population / other oral streptococci (in words) ([1]; multi-species biofilm, 20 min): no impact on the total cfu/mL population

TFFRLFNRSGGGFKKFWKWFRRF-OH [Peptide M8-33]
MIC (S. mutans; S. mutans UA159): 2.5 ± 2.0 µM
MIC (S. mutans; S. mutans comD): 2.5 ± 2.0 µM
MIC (S. gordonii): 10 ± 2.5 µM
biofilm re-growth after treatment (OD600) (S. mutans biofilms): capable of retarding S. mutans biofilm growth
MIC (S. sanguinis): 20 ± 2.0 µM
biofilm re-growth after treatment (OD600) (S. sanguinis biofilms): not affected

TFFRLFTQALGK (synthetic competence stimulating peptide (CSP) fragment peptide C16-3 with internal deletion)
binding to S. mutans (in words) (S. mutans UA159 and comD): binding but at a weaker intensity than CSPC16

TRRRLFNRSFTQALGKSGGGFKKFWKWFRRF-OH [Peptide C16-33]
MIC (S. gordonii): 14.6 ± 5.0 µM
biofilm re-growth after treatment (OD600) (S. mutans biofilms): capable of retarding S. mutans biofilm growth
MIC (S. sanguinis): 13.3 ± 5.8 µM
biofilm re-growth after treatment (OD600) (S. sanguinis biofilms): not affected
